Reference: ChEMBL document CHEMBL4507296 (2021)
Activity calls are given as the source filed them. The rule behind the calls is not given here.

Experiments:
[1] = GPCRScan assay: inhibition of GABA/PBR; set-up: species or system Rattus norvegicus; radioligand conc. used [nm] 0.3 – 2.0, parental cells brain tissue
[2] = target: Transient receptor potential cation channel subfamily M member 8 (Homo sapiens, UniProt Q7Z2W7); test: Cold activation
[3] = system: Tyrosine-protein kinase ABL1 (Homo sapiens), P00519 [F317I]; details: Compound concentration 1000.0 nM
[4] = target: ALK tyrosine kinase receptor (Homo sapiens) (UniProt Q9UM73); details: Compound concentration 1000.0 nM
[5] = target: Calcium/calmodulin-dependent protein kinase type IV (Homo sapiens) (UniProt Q16566); details: Compound concentration 1000.0 nM
Calcium/calmodulin-dependent protein kinase type IV (Homo sapiens), sequence (Q16566 whole entry): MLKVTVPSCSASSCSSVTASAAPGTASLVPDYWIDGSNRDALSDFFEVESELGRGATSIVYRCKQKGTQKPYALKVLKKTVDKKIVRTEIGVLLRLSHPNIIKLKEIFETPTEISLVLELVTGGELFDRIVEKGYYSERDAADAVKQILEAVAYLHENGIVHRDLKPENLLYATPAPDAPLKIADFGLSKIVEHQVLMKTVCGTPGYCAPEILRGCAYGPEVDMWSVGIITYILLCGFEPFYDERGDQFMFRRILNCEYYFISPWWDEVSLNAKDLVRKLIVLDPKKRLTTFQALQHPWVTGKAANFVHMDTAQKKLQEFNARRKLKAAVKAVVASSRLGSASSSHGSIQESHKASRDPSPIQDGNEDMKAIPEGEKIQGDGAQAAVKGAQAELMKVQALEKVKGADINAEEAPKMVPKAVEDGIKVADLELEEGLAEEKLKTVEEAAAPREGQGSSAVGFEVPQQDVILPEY

[6] = target: Cyclin-dependent kinase 11B (Homo sapiens) (UniProt P21127); details: Compound concentration 1000.0 nM
[7] = target: Citron Rho-interacting kinase (Homo sapiens) (UniProt O14578); details: Compound concentration 1000.0 nM
[8] = target: Dual specificity protein kinase CLK2 (Homo sapiens) (UniProt P49760); details: Compound concentration 1000.0 nM
[9] = target: Casein kinase II subunit alpha (Homo sapiens) (UniProt P68400); details: Compound concentration 1000.0 nM
[10] = target: Serine/threonine-protein kinase DCLK3 (Homo sapiens) (UniProt Q9C098); details: Compound concentration 1000.0 nM
[11] = system: Epidermal growth factor receptor (Homo sapiens), P00533 [UNDEFINED MUTATION]; details: Compound concentration 1000.0 nM
[12] = target: Mitogen-activated protein kinase 7 (Homo sapiens) (UniProt Q13164); details: Compound concentration 1000.0 nM
[13] = system: Receptor-type tyrosine-protein kinase FLT3 (Homo sapiens), P36888 [D835H]; details: Compound concentration 1000.0 nM
[14] = system: Receptor-type tyrosine-protein kinase FLT3 (Homo sapiens), P36888 [N841I]; details: Compound concentration 1000.0 nM
[15] = target: Receptor-type tyrosine-protein kinase FLT3 (Homo sapiens) (UniProt P36888); details: Compound concentration 1000.0 nM
[16] = system: eIF-2-alpha kinase GCN2 (Homo sapiens), Q9P2K8 [S808G]; details: Compound concentration 1000.0 nM
[17] = target: Tyrosine-protein kinase JAK2 (Homo sapiens) (UniProt O60674); details: Compound concentration 1000.0 nM
Tyrosine-protein kinase JAK2 (Homo sapiens), sequence (O60674 whole entry): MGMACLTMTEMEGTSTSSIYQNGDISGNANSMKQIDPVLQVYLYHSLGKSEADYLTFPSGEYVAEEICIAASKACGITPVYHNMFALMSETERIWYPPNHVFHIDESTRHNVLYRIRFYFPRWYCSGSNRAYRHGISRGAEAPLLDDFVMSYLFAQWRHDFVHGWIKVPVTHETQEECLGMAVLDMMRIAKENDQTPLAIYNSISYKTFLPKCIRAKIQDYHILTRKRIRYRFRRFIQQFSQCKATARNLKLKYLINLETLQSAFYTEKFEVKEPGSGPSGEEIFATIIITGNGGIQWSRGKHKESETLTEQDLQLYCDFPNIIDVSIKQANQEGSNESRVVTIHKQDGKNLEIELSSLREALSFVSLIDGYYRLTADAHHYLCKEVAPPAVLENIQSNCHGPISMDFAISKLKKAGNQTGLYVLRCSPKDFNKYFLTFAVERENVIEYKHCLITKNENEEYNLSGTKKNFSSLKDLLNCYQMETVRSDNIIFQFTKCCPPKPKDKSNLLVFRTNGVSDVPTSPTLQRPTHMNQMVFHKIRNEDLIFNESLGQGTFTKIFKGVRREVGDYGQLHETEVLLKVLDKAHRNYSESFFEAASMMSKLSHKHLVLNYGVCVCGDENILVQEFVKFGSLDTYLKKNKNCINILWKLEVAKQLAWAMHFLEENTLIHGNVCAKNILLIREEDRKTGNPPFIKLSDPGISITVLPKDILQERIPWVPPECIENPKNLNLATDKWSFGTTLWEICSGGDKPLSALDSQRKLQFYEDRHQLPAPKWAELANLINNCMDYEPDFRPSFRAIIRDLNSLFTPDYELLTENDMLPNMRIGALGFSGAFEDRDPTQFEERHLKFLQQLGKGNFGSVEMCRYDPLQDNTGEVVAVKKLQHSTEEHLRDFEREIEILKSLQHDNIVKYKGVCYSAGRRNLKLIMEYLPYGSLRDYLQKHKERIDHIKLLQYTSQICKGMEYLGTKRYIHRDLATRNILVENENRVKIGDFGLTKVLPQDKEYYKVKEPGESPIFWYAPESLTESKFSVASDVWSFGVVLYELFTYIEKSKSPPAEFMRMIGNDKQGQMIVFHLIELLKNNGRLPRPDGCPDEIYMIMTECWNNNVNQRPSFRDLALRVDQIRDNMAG

[18] = system: Mast/stem cell growth factor receptor Kit (Homo sapiens), P10721 [V559D,V654A]; details: Compound concentration 1000.0 nM
[19] = target: LIM domain kinase 2 (Homo sapiens) (UniProt P53671); details: Compound concentration 1000.0 nM
LIM domain kinase 2 (Homo sapiens), sequence (P53671 whole entry, looked up, the tested form may be a part): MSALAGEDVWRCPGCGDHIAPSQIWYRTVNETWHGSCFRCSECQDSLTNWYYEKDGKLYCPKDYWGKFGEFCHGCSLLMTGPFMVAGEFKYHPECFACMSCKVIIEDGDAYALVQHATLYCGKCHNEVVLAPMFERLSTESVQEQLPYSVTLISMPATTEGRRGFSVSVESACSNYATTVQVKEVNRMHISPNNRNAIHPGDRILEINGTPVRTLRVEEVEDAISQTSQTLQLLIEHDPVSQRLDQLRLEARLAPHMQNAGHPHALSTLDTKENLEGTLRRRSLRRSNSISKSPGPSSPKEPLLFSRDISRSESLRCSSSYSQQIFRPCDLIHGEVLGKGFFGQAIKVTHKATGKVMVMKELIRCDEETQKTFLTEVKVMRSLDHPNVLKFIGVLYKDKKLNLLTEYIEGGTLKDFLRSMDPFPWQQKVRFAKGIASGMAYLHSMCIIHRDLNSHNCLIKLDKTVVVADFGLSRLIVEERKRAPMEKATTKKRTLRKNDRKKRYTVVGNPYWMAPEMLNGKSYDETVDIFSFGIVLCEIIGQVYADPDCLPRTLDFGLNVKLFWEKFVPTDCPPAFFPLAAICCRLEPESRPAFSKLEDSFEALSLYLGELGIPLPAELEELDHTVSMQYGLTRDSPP

[20] = target: Dual specificity mitogen-activated protein kinase kinase 6 (Homo sapiens) (UniProt P52564); details: Compound concentration 1000.0 nM
[21] = target: Serine/threonine-protein kinase 24 (Homo sapiens) (UniProt Q9Y6E0); details: Compound concentration 1000.0 nM
Serine/threonine-protein kinase 24 (Homo sapiens), sequence (Q9Y6E0 whole entry, looked up): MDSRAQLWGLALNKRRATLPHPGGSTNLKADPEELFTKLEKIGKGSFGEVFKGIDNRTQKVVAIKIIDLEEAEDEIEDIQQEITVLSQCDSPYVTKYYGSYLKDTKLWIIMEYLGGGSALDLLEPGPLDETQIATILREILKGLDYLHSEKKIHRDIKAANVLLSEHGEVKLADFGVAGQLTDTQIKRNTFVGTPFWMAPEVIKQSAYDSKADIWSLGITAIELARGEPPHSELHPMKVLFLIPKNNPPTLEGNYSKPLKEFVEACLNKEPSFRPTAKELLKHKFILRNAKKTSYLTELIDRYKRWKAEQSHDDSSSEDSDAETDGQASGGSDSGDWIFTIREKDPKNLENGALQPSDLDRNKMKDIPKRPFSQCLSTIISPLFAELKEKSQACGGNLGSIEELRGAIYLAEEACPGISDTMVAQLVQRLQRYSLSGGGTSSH

[22] = target: Mitogen-activated protein kinase 14 (Homo sapiens) (UniProt Q16539); details: Compound concentration 1000.0 nM
[23] = target: Serine/threonine-protein kinase PAK 3 (Homo sapiens) (UniProt O75914); details: Compound concentration 1000.0 nM
Serine/threonine-protein kinase PAK 3 (Homo sapiens), sequence (O75914 whole entry, looked up, canonical isoform): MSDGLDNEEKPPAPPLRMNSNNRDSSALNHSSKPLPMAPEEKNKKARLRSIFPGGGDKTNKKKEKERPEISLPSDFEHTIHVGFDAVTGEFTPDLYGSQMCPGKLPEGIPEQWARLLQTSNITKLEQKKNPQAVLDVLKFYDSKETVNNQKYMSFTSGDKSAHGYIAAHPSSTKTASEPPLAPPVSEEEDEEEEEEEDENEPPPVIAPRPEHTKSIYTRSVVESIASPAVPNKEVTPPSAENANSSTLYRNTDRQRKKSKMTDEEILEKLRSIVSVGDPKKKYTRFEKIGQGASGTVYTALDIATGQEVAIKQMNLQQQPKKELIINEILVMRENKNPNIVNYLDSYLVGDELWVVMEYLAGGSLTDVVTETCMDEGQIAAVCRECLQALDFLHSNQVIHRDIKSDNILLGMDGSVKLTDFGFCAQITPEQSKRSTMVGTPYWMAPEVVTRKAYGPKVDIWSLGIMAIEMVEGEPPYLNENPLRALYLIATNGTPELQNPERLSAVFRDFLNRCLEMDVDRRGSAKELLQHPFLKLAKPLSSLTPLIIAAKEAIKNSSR

[24] = system: Phosphatidylinositol 4,5-bisphosphate 3-kinase catalytic subunit alpha isoform (Homo sapiens), P42336 [C420R]; details: Compound concentration 1000.0 nM
[25] = system: Phosphatidylinositol 4,5-bisphosphate 3-kinase catalytic subunit alpha isoform (Homo sapiens), P42336 [M1043I]; details: Compound concentration 1000.0 nM
[26] = target: Serine/threonine-protein kinase PLK1 (Homo sapiens) (UniProt P53350); details: Compound concentration 1000.0 nM
[27] = target: Serine/threonine-protein kinase D2 (Homo sapiens) (UniProt Q9BZL6); details: Compound concentration 1000.0 nM
Serine/threonine-protein kinase D2 (Homo sapiens), sequence (Q9BZL6 whole entry): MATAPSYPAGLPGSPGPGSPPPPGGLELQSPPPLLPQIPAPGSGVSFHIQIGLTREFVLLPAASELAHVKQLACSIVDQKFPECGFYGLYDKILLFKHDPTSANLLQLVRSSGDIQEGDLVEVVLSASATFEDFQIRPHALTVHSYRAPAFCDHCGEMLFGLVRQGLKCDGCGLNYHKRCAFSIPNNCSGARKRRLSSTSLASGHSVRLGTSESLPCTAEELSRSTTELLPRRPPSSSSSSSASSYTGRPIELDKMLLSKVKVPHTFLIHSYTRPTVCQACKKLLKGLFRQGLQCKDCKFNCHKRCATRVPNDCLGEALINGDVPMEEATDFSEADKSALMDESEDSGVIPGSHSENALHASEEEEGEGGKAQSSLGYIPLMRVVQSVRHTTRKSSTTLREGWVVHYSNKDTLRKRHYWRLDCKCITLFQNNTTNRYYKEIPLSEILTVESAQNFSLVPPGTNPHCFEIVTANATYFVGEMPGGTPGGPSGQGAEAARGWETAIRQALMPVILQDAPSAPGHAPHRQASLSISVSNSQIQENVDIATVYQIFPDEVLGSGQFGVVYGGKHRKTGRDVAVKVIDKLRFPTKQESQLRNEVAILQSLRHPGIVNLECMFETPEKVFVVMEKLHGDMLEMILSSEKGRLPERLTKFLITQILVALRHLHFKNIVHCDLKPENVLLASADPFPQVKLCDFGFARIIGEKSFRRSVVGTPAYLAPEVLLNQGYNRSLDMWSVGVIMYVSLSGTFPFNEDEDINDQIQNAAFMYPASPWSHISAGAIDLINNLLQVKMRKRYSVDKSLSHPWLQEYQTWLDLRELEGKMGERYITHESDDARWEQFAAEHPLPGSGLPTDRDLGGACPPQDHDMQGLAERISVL

[28] = target: Serine/threonine-protein kinase RIO3 (Homo sapiens) (UniProt O14730); details: Compound concentration 1000.0 nM
[29] = target: Ribosomal protein S6 kinase alpha-5 (Homo sapiens) (UniProt O75582); details: Compound concentration 1000.0 nM
[30] = target: Ribosomal protein S6 kinase alpha-1 (Homo sapiens) (UniProt Q15418); details: Compound concentration 1000.0 nM
[31] = target: Serine/threonine-protein kinase SIK1 (Homo sapiens) (UniProt P57059); details: Compound concentration 1000.0 nM
[32] = target: STE20/SPS1-related proline-alanine-rich protein kinase (Homo sapiens) (UniProt Q9UEW8); details: Compound concentration 1000.0 nM
[33] = target: Serine/threonine-protein kinase TAO2 (Homo sapiens) (UniProt Q9UL54); details: Compound concentration 1000.0 nM
[34] = target: Testis-specific serine/threonine-protein kinase 1 (Homo sapiens) (UniProt Q9BXA7); details: Compound concentration 1000.0 nM
[35] = target: Testis-specific serine/threonine-protein kinase 3 (Homo sapiens) (UniProt Q96PN8); details: Compound concentration 1000.0 nM
Testis-specific serine/threonine-protein kinase 3 (Homo sapiens), sequence (Q96PN8 whole entry): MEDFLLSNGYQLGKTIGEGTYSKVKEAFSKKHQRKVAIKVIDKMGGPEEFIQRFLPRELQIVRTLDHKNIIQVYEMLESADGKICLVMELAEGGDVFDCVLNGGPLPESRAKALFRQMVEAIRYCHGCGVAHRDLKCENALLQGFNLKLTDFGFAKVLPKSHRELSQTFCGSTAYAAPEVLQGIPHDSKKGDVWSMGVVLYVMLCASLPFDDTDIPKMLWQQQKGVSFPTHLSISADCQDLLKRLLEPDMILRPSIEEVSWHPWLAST

[36] = target: Serine/threonine-protein kinase ULK1 (Homo sapiens) (UniProt O75385); details: Compound concentration 1000.0 nM
[37] = target: Wee1-like protein kinase (Homo sapiens) (UniProt P30291); details: Compound concentration 1000.0 nM
[38] = target: Serine/threonine-protein kinase WNK4 (Homo sapiens) (UniProt Q96J92); details: Compound concentration 1000.0 nM
[39] = target: Sodium-dependent noradrenaline transporter (Homo sapiens) (UniProt P23975); details: Compound concentration 10.0 uM
Sodium-dependent noradrenaline transporter (Homo sapiens), sequence (P23975 whole entry): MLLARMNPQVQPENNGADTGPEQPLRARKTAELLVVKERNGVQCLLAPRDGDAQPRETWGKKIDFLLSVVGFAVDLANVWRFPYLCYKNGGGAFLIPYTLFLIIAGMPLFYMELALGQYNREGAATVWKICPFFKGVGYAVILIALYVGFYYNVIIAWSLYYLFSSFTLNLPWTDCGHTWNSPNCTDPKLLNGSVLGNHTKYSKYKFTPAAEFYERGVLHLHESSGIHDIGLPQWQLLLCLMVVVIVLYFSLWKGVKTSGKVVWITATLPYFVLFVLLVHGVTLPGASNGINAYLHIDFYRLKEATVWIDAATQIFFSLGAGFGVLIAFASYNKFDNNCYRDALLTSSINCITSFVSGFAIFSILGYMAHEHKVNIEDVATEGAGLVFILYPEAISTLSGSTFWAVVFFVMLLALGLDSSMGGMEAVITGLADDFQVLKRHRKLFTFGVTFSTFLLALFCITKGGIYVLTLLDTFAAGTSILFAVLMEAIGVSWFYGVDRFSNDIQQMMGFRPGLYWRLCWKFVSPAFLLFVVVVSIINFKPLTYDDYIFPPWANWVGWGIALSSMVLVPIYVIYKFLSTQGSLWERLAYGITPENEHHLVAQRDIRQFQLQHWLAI

[40] = target: GABA-A receptor; anion channel (Rattus norvegicus) (UniProt O09028+P15431+P18506+P18508+P19969+P20236+P23574+P23576+P28471+P28473+P30191+P62813+P63079+P63138+Q91ZM7+Q9ES14); details: Compound concentration 10.0 uM
[41] = target: Sigma non-opioid intracellular receptor 1 (Homo sapiens) (UniProt Q99720); details: Compound concentration 10.0 uM

C[C@H](c1ccc(F)cc1)N(Cc1cccc(C(=O)O)c1)C(=O)c1cnc2ccccc2c1 [PF-05105679]
Ki [1]: 1.02 µM | pKi [1]: 5.99 | IC50 [2]: 0.48 µM (active) | residual activity [3]: 72% | residual activity [4]: 94% | residual activity [5]: 100% | residual activity [6]: 84% | residual activity [7]: 100% | residual activity [8]: 98% | residual activity [9]: 100% | residual activity [10]: 100% | residual activity [11]: 100% | residual activity [12]: 78% | residual activity [13]: 84% | residual activity [14]: 62% | residual activity [15]: 100% | residual activity [16]: 100% | residual activity [17]: 88% | residual activity [18]: 100% | residual activity [19]: 100% | residual activity [20]: 100% | residual activity [21]: 100% | residual activity [22]: 0% | residual activity [23]: 96% | residual activity [24]: 100% | residual activity [25]: 100% | residual activity [26]: 79% | residual activity [27]: 100% | residual activity [28]: 86% | residual activity [29]: 98% | residual activity [30]: 100% | residual activity [31]: 90% | residual activity [32]: 82% | residual activity [33]: 100% | residual activity [34]: 91% | residual activity [35]: 64% | residual activity [36]: 86% | residual activity [37]: 96% | residual activity [38]: 91% | inhibition [39]: 2.04% | inhibition [40]: 28.4% | inhibition [41]: 16%
